Laboratory results from US20050037990A1, “Disubstituted 7,9-guanines halides as telomerase inhibitors” (priority 2001, published 2005).

Target: T1, telomerase enzyme (Homo sapiens, UniProt O14746)
T1 construct: telomerase enzyme diluted in a buffer
Assay: Flash Plate-based telomerase assay
Assay type: biochemical
Conditions: telomerase inhibition; two hours of incubation at 37°; Flash Plate hybridization readout
From the text: The telomerase activity of the compounds of the invention has been evaluated using a Flash Plate-based assay. […] Other methods for determining the inhibitory concentration of a compound of the invention against telomerase can be employed as will be apparent to a person skilled in the art based on the disclosure herein.
Briefly, the assay mixture is costituted by: • telomerase enzyme diluted in a buffer, the composition of which has been selected to maintain the enzyme activity stable along the duration of the assay. • dNTPs, deoxynucleotides 5′-triphosphate. • biotynilated oligo as primer. • increasing concentrations of test compounds/positive control.
After two hours of incubation at 37° degrees the telomeric repeats added are evaluated by hybridization in solution with a 3′-labeled short oligonucleotide probe.
The extent of hybridization is then quantitated by transferring the reaction mixture in a streptavidin-coated flash plate, where the binding between biotin and streptavidin occurs.
The telomerase activity is proportional to the radioactivity measured and the inhibitory activity of the compounds is evaluated as IC50 using the Sigma Plot fit program.
With the above-described method, IC50 values of the compounds of the present invention were determined.

T1 sequence (O14746 whole entry): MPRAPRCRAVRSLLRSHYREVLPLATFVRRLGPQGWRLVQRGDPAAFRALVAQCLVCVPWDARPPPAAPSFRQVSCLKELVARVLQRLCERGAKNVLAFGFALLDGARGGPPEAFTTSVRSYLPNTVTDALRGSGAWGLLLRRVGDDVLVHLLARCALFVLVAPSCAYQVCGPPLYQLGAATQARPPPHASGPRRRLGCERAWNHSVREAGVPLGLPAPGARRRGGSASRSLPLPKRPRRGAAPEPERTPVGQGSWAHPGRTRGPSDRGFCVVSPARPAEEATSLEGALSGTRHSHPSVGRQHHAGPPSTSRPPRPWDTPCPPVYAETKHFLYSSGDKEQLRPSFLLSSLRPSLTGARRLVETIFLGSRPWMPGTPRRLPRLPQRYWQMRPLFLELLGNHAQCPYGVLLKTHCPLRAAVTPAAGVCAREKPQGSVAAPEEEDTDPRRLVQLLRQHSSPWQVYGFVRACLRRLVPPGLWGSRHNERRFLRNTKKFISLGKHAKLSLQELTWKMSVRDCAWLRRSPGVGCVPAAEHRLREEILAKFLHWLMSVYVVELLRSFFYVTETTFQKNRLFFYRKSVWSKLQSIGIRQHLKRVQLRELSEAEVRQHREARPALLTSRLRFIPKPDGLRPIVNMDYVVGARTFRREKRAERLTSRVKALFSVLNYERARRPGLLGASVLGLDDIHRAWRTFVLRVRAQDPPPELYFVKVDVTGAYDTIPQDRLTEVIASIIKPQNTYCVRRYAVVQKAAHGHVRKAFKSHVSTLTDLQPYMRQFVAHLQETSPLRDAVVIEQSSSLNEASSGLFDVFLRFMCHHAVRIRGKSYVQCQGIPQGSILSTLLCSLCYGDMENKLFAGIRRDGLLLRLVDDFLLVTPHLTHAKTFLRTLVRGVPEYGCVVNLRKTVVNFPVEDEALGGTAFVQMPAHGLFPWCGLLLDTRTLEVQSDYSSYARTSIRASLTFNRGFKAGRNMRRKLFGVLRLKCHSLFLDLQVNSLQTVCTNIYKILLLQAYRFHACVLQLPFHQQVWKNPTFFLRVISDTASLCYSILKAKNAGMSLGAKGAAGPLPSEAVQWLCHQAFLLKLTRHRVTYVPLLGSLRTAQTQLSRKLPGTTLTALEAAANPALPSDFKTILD

IC50 [µM] | Compound
10 | Nc1nc2c(c(=O)[nH]1)[n+](Cc1ccc3ccccc3c1)cn2Cc1ccc2ccccc2c1 [Compound 1, 2-amino-7,9-bis(2-naphthylmethyl)-6-oxo-6,9-dihydro-1H-purin-7-ium bromide]
3 | Nc1nc2c(c(=O)[nH]1)[n+](Cc1ccc(-c3ccccc3)cc1)cn2Cc1ccc(-c2ccccc2)cc1 [Compound 2, 2-amino-7,9-bis[(1,1′-biphenyl)-4-ylmethyl]-6-oxo-6,9-dihydro-1H-purin-7-ium bromide]
10 | Nc1nc2c(c(=O)[nH]1)[n+](Cc1ccc(Cl)c(Cl)c1)cn2Cc1ccc(Cl)c(Cl)c1 [Compound 4, 2-amino-7,9-bis(3,4-dichlorobenzyl)-6-oxo-6,9-dihydro-1H-purin-7-ium bromide]
4 | Nc1nc2c(c(=O)[nH]1)[n+](Cc1ccc(-c3ccccc3)cc1)cn2Cc1ccc2ccccc2c1 [Compound 7, 2-amino-7-([1,1′-biphenyl]-4-ylmethyl)-9-(2-naphthylmethyl)-6-oxo-6,9-dihydro-1H-purin-7-ium bromide]
